Measured values as given in patent US12318375B2, “Method of treatment with tradipitant” (Vanda Pharmaceuticals Inc., priority 2015, dated 2025).

Assays:
[1] = tested on: chronic pruritus in patients with atopic dermatitis; experiment: Phase II proof of concept clinical study VP-VLY-686-2101: efficacy on pruritus measures; type: in vivo, human; details: for VAS Average change (primary): tradipitant 100 mg qd oral in the evening
Procedure: A phase II proof of concept clinical study (Study ID VP-VLY-686-2101, “Proof of Concept of VLY-686 in Subjects With Treatment-Resistant Pruritus Associated With Atopic Dermatitis”) was conducted, investigating the safety and efficacy of tradipitant as a monotherapy in the treatment of chronic pruritus in patients with atopic dermatitis.
In the study, patients with a Visual Analog Scale (VAS) score of greater than 70 mm during one of the two days preceding inclusion into the study were randomized to receive orally either 100 mg of tradipitant (N=34) or placebo (N=35) once a day in the evening. In the tradipitant arm of the study, tradipitant was orally administered to patients in capsules with standard excipients in an amount of 100 mg in the evening. Clinical assessments were made after 3 or 4 weeks of daily treatment, or at both 3 weeks and 4 weeks, each assessment being done in the morning of the day after last treatment or in the afternoon of the day after last treatment. The tradipitant was administered in an immediate release form comprising tradipitant and pharmaceutically acceptable excipients in a capsule. The tradipitant particle size was approximately: D10: <5 um, D50: <10 um, and D90: <25 um, wherein D10 means that 10% of the particles are of the indicated mean particle size, D50 means that 50% of the particles are of the indicated mean particle size, and D90 means that 90% of the particles are of the indicated mean particle size.
Baseline VAS scores were 76.1 and 77.2 for the tradipitant and placebo arms respectively. Efficacy was evaluated through a number of clinical research instruments. In addition, at the time of efficacy evaluation blood samples were collected for PK analysis in order to determine the plasma levels of tradipitant.

[2] = Example 2: plasma concentration of tradipitant in healthy subjects (85 mg qd, then Q12H); type: in vivo, human
Procedure: In one study, healthy subject participants were orally administered 85 mg tradipitant on study day 3, and then 85 mg tradipitant Q12H on study days 4-16. Plasma concentration levels of tradipitant were measured on each of day 3, day 7, and day 11.
This study illustrated that administration of 85 mg tradipitant qd (on day 3) produced an average plasma concentration over hours 0-12 that was about 50% of the plasma concentration observed in the PM group in Example 1. On days 7 and 11, the average plasma concentration over hours 0-12 following administration of 85 mg bid (specifically, Q12H) tradipitant was about 150% of the plasma concentration observed in the PM group in Example 1. The average plasma concentration over hours 0-12 at each point was determined by dividing the AUC for hours 0-12 (in (hr.)×(ng/mL)) by 12 hours.

O=C(c1ccccc1Cl)c1cccnc1-c1nnn(Cc2cc(C(F)(F)F)cc(C(F)(F)F)c2)c1-c1ccncc1 [Tradipitant, {2-[1-(3,5-Bistrifluoromethylbenzyl)-5-pyridin-4-yl-1H-[1,2,3]triazol-4-yl]-pyridin-3-yl}-(2-chlorophenyl)-methanone]
endpoints that correspond to the underlying disease (SKINDEX, SCORAD objective, EASI and DLQI) compared with placebo ([1]; 100 mg qd, 4-week study): did not show any significant difference from placebo | VAS Average change (primary) ([1]; AM group (morning assessment), N = 18, after 3 or 4 weeks): −54 | CGIC, Diff tradipitant vs placebo ([1]; AM group, 100 mg qd): −1.15 | DLQI change, Diff tradipitant vs placebo ([1]; AM group, 100 mg qd): 0.35 | PBI, Diff tradipitant vs placebo ([1]; AM group, 100 mg qd): 0.74 | SCORAD change, Diff tradipitant vs placebo ([1]; AM group, 100 mg qd): −5.23 | VAS Worst change, Diff tradipitant vs placebo ([1]; AM group, 100 mg qd): −21.9 | VRS change, Diff tradipitant vs placebo ([1]; AM group, 100 mg qd): −0.79 | PBI ([1]; AM group, 100 mg qd, N = 18): 1.47 | VAS Average change, Diff tradipitant vs placebo ([1]; AM group, 100 mg qd, tradipitant N = 18 vs placebo N = 17): −23.7 | VAS Average change (primary) ([1]; PM group (afternoon assessment), N = 13, after 3 or 4 weeks): −28.8 | CGIC, Diff tradipitant vs placebo ([1]; PM group, 100 mg qd): 0.19 | DLQI change, Diff tradipitant vs placebo ([1]; PM group, 100 mg qd): −1.89 | PBI, Diff tradipitant vs placebo ([1]; PM group, 100 mg qd): −0.39 | SCORAD change, Diff tradipitant vs placebo ([1]; PM group, 100 mg qd): 0.88 | VAS Worst change, Diff tradipitant vs placebo ([1]; PM group, 100 mg qd): 8.99 | VRS change, Diff tradipitant vs placebo ([1]; PM group, 100 mg qd): −0.13 | efficacy analysis of pruritus measures compared with placebo ([1]; PM group, 100 mg qd): no significant differences between tradipitant and placebo | PBI ([1]; PM group, 100 mg qd, N = 13): 1.01 | VAS Average change, Diff tradipitant vs placebo ([1]; PM group, 100 mg qd, tradipitant N = 13 vs placebo N = 11): 5.82 | VAS change from baseline compared with placebo (pre-specified primary endpoint) ([1]; all patients, 100 mg qd): no statistical difference from placebo | average plasma concentration over hours 0-12 (AUC 0-12 divided by 12 hours) relative to PM group in Example 1 ([2]; day 3, 85 mg qd oral): about 50% | average plasma concentration over hours 0-12 (AUC 0-12 divided by 12 hours) relative to PM group in Example 1 ([2]; days 7 and 11, 85 mg bid (Q12H) oral): about 150%
